{"source": "patent US20040248801A1", "about": "“Methods and reagents for regulation of cellular responses in biological systems” (priority 2000, published 2004)", "tested_on": "bacterial chemoreceptors of E. coli AW405 or RP 1078 (cheW)", "test": "immunofluorescence microscopy of chemoreceptor organization", "type": "cell-based, Escherichia coli", "conditions": "E. coli cheW mutants, 5 mM, anti-Tsr labeling", "protocol": "Fluorescence microscopy experiments were performed to visualize changes in chemotaxis receptor organization upon treatment with saccharide-carrying ligands. These experiments can determine directly whether or not multivalent ligands can influence chemoreceptor reorganization. It had been shown that wild-type E. coli localize chemoreceptors to their poles and that inactivation of the structural protein, CheW, results in a random distribution of chemoreceptors on the cell. The ability of ROMP-derived arrays to localize the chemoreceptors was examined using E. coli cheWmutants. Bacteria were treated with 1, 3, or 4, fixed, and labeled with an antibody to the bacterial chemoreceptors (anti-Tsr). […]\nTo confirm the ability of multivalent ligands to alter the organization of the chemoreceptors in the bacterial membrane E. coli were treated with compound 8, a galactose-bearing multivalent ligand having a fluorescent label (Scheme 1). When E. coli were treated with 8 or a fluorescein-labeled anti-Tsr antibody 14, the fluorescence patterns observed were similar. […]\nE. coli AW405 or RP 1078 (cheW) were pretreated with buffer alone or with compounds 1, 3, 4, or 8 at 5 mM in a 10 μL total volume of chemotaxis buffer. […] Fluorescence microscopy was performed on a Zeiss Axioscope at 1000×using an oil immersion lens. […]", "data": [{"smiles": "O=C(NCCOC1OC(CO)C(O)C(O)C1O)C1C[C@@H]2C=CC1C2", "note": "(stereo partly shown) [Compound 1]", "values": [{"measurement": "effect on chemoreceptor distribution", "result": "no effect on receptor distribution"}]}]}
